Earlier results in patent US9339034B2, “Use of thaxtomin for selective control of rice and aquatic based weeds” (MARRONE BIO INNOVATIONS, INC., priority 2009, dated 2016).

Test system: weeds
Details: in vivo; cited from earlier work

C=C(CO)C(C)(O)CC(=O)O (stereo not shown) [mevalocidin]
time to kill weeds: 3-4 weeks
